This is an account of results in patent US20230374015A1, “INHIBITORS OF FIBROBLAST GROWTH FACTOR RECEPTOR KINASES” (Kinnate Biopharma Inc., priority 2020, published 2023).

The target of this assay is FGFR2 (Homo sapiens, UniProt P21802). The experiment in a line: FGFR2 Kinase Protocol - Condition 2 (Reaction Biology HotSpot radiometric kinase assay, no preincubation). Format: biochemical. As to conditions: poly[Glu:Tyr] (4:1) 0.2 mg/ml, ATP 100 microM, 2 hr room temperature. The gist of the method:
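Ten-point, 3-fold compound dilutions were tested against wildtype or V564F FGFR2 with 100 µM ATP (33P-labelled), no preincubation, and 0.2 mg/ml poly[Glu:Tyr] (4:1) substrate. After 2 hr at room temperature, incorporation was read on P81 filter paper; IC50 fitted from activity remaining relative to vehicle.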

Molecules are shown by their SMILES.

FGFR2, sequence (P21802 22-821): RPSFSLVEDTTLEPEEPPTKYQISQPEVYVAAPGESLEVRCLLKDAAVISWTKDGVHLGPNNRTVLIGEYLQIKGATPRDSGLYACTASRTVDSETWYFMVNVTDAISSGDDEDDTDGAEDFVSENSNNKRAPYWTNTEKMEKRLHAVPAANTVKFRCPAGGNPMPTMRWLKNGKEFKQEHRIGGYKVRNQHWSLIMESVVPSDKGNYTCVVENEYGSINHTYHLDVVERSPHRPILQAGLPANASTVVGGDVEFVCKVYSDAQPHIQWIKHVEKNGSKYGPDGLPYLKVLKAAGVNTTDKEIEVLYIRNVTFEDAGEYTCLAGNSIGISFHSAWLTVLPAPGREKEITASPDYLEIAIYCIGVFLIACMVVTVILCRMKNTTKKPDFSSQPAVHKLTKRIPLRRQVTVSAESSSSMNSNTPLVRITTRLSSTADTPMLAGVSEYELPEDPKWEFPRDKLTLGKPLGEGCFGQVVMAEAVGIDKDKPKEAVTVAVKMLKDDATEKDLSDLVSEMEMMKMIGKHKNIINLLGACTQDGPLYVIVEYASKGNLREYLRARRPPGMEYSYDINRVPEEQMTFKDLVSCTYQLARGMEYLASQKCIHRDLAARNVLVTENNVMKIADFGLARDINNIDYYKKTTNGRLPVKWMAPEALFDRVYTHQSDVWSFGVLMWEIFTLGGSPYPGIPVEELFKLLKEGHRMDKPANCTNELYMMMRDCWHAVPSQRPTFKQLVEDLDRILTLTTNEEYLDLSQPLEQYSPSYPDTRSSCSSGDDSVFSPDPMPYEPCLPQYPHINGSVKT

As usually defined, the IC50 is the concentration at which inhibition is half-maximal. A low value points to inhibition by little substance. `C=CC(=O)N1C[C@@H](n2nc(C#Cc3cc4ncn(C)c4c(F)c3Cl)c3c(N)ncnc32)C[C@@H]1CC#N` [Example 161, 2-[(2R,4S)-4-{4-Amino-3-[2-(6-chloro-7-fluoro-1-methyl-1,3-benzodiazol-5-yl)ethynyl]pyrazolo[3,4-d]pyrimidin-1-yl}-1-(prop-2-enoyl)pyrrolidin-2-yl]acetonitrile]: the IC50 was not above 100 nM.
The result for `C=CC(=O)N1C[C@@H](n2nc(C#Cc3cc4ncn(CC)c4c(F)c3Cl)c3c(N)nccc32)C[C@@H]1CC#N` [Example 162, 2-[(2R,4S)-4-{4-Amino-3-[2-(6-chloro-1-ethyl-7-fluoro-1,3-benzodiazol-5-yl)ethynyl]pyrazolo[4,3-c]pyridin-1-yl}-1-(prop-2-enoyl)pyrrolidin-2-yl]acetonitrile] reads not above 100 nM.
The result for `C=CC(=O)N1C[C@@H](n2nc(C#Cc3cc4ncn(CC)c4cc3F)c3c(N)ncnc32)C[C@@H]1C` [Example 163, 1-((2S,4S)-4-(4-amino-3-((1-ethyl-6-fluoro-1H-benzo[d]imidazol-5-yl)ethynyl)-1H-pyrazolo[3,4-d]pyrimidin-1-yl)-2-methylpyrrolidin-1-yl)prop-2-en-1-one] reads not above 100 nM.
The result for `C=CC(=O)N1C[C@@H](n2nc(C#Cc3cc4ncn(C)c4cc3Cl)c3c(N)ncnc32)C[C@@H]1C` [Example 164, 1-((2S,4S)-4-(4-amino-3-((6-chloro-1-methyl-1H-benzo[d]imidazol-5-yl)ethynyl)-1H-pyrazolo[3,4-d]pyrimidin-1-yl)-2-methylpyrrolidin-1-yl)prop-2-en-1-one] reads not above 100 nM.
In turn, `C=CC(=O)N1C[C@@H](n2nc(C#Cc3cc4ncn(C)c4cc3F)c3c(N)nccc32)C[C@@H]1C` [Example 165, 1-((2S,4S)-4-(4-amino-3-((6-fluoro-1-methyl-1H-benzo[d]imidazol-5-yl)ethynyl)-1H-pyrazolo[4,3-c]pyridin-1-yl)-2-methylpyrrolidin-1-yl)prop-2-en-1-one] came in with an IC50 not above 100 nM.
The result for `C=CC(=O)N1C[C@@H](n2nc(C#Cc3cc4ncn(CC)c4cc3F)c3c(N)nccc32)C[C@@H]1C` [Example 166, 1-((2S,4S)-4-(4-amino-3-((1-ethyl-6-fluoro-1H-benzo[d]imidazol-5-yl)ethynyl)-1H-pyrazolo[4,3-c]pyridin-1-yl)-2-methylpyrrolidin-1-yl)prop-2-en-1-one] reads not above 100 nM; that for `C=CC(=O)N1C[C@@H](n2nc(C#Cc3cc4ncn(C)c4cc3Cl)c3c(N)nccc32)C[C@@H]1C` [Example 167, 1-((2S,4S)-4-(4-amino-3-((6-chloro-1-methyl-1H-benzo[d]imidazol-5-yl)ethynyl)-1H-pyrazolo[4,3-c]pyridin-1-yl)-2-methylpyrrolidin-1-yl)prop-2-en-1-one], not above 100 nM; that for `C=CC(=O)N1C[C@@H](n2nc(C#Cc3cc4ncn(CC)c4cc3Cl)c3c(N)ncnc32)C[C@@H]1C` [Example 168, 1-((2S,4S)-4-(4-amino-3-((1-ethyl-6-chloro-1H-benzo[d]imidazol-5-yl)ethynyl)-1H-pyrazolo[3,4-d]pyrimidin-1-yl)-2-methylpyrrolidin-1-yl)prop-2-en-1-one], not above 100 nM.
`C=CC(=O)N1C[C@@H](n2nc(C#Cc3cc4ncn(CC)c4cc3Cl)c3c(N)nccc32)C[C@@H]1C` [Example 169, 1-((2S,4S)-4-(4-amino-3-((6-chloro-1-ethyl-1H-benzo[d]imidazol-5-yl)ethynyl)-1H-pyrazolo[4,3-c]pyridin-1-yl)-2-methylpyrrolidin-1-yl)prop-2-en-1-one] displayed an IC50 not above 100 nM.
The molecule `C=CC(=O)N1C[C@@H](n2nc(C#Cc3cc4ncn(CC)c4cc3F)c3c(N)ncnc32)C[C@@H]1C(F)F` [Example 170, 1-((2R,4S)-4-(4-amino-3-((1-ethyl-6-fluoro-1H-benzo[d]imidazol-5-yl)ethynyl)-1H-pyrazolo[3,4-d]pyrimidin-1-yl)-2-(difluoromethyl)pyrrolidin-1-yl)prop-2-en-1-one] displayed an IC50 not above 100 nM.
`C=CC(=O)N1C[C@@H](n2nc(C#Cc3cc4ncn(CC)c4cc3F)c3c(N)nccc32)C[C@@H]1C(F)F` [Example 171, 1-((2R,4S)-4-(4-amino-3-((1-ethyl-6-fluoro-1H-benzo[d]imidazol-5-yl)ethynyl)-1H-pyrazolo[4,3-c]pyridin-1-yl)-2-(difluoromethyl)pyrrolidin-1-yl)prop-2-en-1-one] gave an IC50 not above 100 nM.
The result for `C=CC(=O)N1C[C@@H](n2nc(C#Cc3cc4ncn(C)c4cc3Cl)c3c(N)nccc32)C[C@@H]1C(F)F` [Example 172, 1-((2R,4S)-4-(4-amino-3-((6-chloro-1-methyl-1H-benzo[d]imidazol-5-yl)ethynyl)-1H-pyrazolo[4,3-c]pyridin-1-yl)-2-(difluoromethyl)pyrrolidin-1-yl)prop-2-en-1-one] reads not above 100 nM; that for `C=CC(=O)N1C[C@@H](n2nc(C#Cc3cc4ncn(CC)c4c(F)c3Cl)c3c(N)ncnc32)C[C@@H]1CC#N` [Example 173, 2-[(2R,4S)-4-{4-Amino-3-[2-(6-chloro-1-ethyl-7-fluoro-1,3-benzodiazol-5-yl)ethynyl]pyrazolo[3,4-d]pyrimidin-1-yl}-1-(prop-2-enoyl)pyrrolidin-2-yl]acetonitrile], not above 100 nM; that for `C=CC(=O)N1C[C@@H](n2nc(C#Cc3cc4ncn(C)c4c(F)c3Cl)c3c(N)nccc32)C[C@@H]1CC#N` [Example 174, 2-[(2R,4S)-4-{4-Amino-3-[2-(6-chloro-7-fluoro-1-methyl-1,3-benzodiazol-5-yl)ethynyl]pyrazolo[4,3-c]pyridin-1-yl}-1-(prop-2-enoyl)pyrrolidin-2-yl]acetonitrile], not above 100 nM.
Next, `C=CC(=O)N1C[C@@H](n2nc(C#Cc3cc4ncn(C)c4cc3F)c3c(N)ncnc32)C[C@@H]1C(F)F` [Example 177, 1-((2R,4S)-4-(4-amino-3-((6-fluoro-1-methyl-1H-benzo[d]imidazol-5-yl)ethynyl)-1H-pyrazolo[3,4-d]pyrimidin-1-yl)-2-(difluoromethyl)pyrrolidin-1-yl)prop-2-en-1-one]: not above 100 nM.
Next, `C=CC(=O)N1C[C@@H](n2nc(C#Cc3cc4ncn(C5CC5)c4cc3F)c3c(N)ncnc32)C[C@@H]1C(F)F` [Example 178, 1-((2R,4S)-4-(4-amino-3-((1-cyclopropyl-6-fluoro-1H-benzo[d]imidazol-5-yl)ethynyl)-1H-pyrazolo[3,4-d]pyrimidin-1-yl)-2-(difluoromethyl)pyrrolidin-1-yl)prop-2-en-1-one]: not above 100 nM; `C=CC(=O)N1C[C@@H](n2nc(C#Cc3cc4ncn(C)c4cc3Cl)c3c(N)ncnc32)C[C@@H]1C(F)F` [Example 179, 1-((2R,4S)-4-(4-amino-3-((6-chloro-1-methyl-1H-benzo[d]imidazol-5-yl)ethynyl)-1H-pyrazolo[3,4-d]pyrimidin-1-yl)-2-(difluoromethyl)pyrrolidin-1-yl)prop-2-en-1-one]: not above 100 nM; `C=CC(=O)N1C[C@@H](n2nc(C#Cc3cc4ncn(CC)c4cc3Cl)c3c(N)ncnc32)C[C@@H]1C(F)F` [Example 180, 1-((2R,4S)-4-(4-amino-3-((6-chloro-1-ethyl-1H-benzo[d]imidazol-5-yl)ethynyl)-1H-pyrazolo[3,4-d]pyrimidin-1-yl)-2-(difluoromethyl)pyrrolidin-1-yl)prop-2-en-1-one]: not above 100 nM.
On to `C=CC(=O)N1C[C@@H](n2nc(C#Cc3cc4ncn(C)c4cc3F)c3c(N)nccc32)C[C@@H]1C(F)F` [Example 181, 1-((2R,4S)-4-(4-amino-3-((6-fluoro-1-methyl-1H-benzo[d]imidazol-5-yl)ethynyl)-1H-pyrazolo[4,3-c]pyridin-1-yl)-2-(difluoromethyl)pyrrolidin-1-yl)prop-2-en-1-one], for which the IC50 is not above 100 nM.
Next, `C=CC(=O)N1C[C@@H](n2nc(C#Cc3cc4ncn(C5CC5)c4cc3F)c3c(N)nccc32)C[C@@H]1C(F)F` [Example 182, 1-((2R,4S)-4-(4-amino-3-((1-cyclopropyl-6-fluoro-1H-benzo[d]imidazol-5-yl)ethynyl)-1H-pyrazolo[4,3-c]pyridin-1-yl)-2-(difluoromethyl)pyrrolidin-1-yl)prop-2-en-1-one]: not above 100 nM; `C=CC(=O)N1C[C@@H](n2nc(C#Cc3cc4ncn(CC)c4cc3Cl)c3c(N)nccc32)C[C@@H]1C(F)F` [Example 183, 1-((2R,4S)-4-(4-amino-3-((6-chloro-1-ethyl-1H-benzo[d]imidazol-5-yl)ethynyl)-1H-pyrazolo[4,3-c]pyridin-1-yl)-2-(difluoromethyl)pyrrolidin-1-yl)prop-2-en-1-one]: not above 100 nM.
The result for `C=CC(=O)N1C[C@@H](n2nc(C#Cc3cc4ncn(C)c4cc3F)c3c(N)ncnc32)C[C@@H]1CF` [Example 184, 1-[(2R,4S)-4-{4-Amino-3-[2-(6-fluoro-1-methyl-1,3-benzodiazol-5-yl)ethynyl]pyrazolo[3,4-d]pyrimidin-1-yl}-2-(fluoromethyl)pyrrolidin-1-yl]prop-2-en-1-one] reads not above 100 nM; that for `C=CC(=O)N1C[C@@H](n2nc(C#Cc3cc4ncn(C)c4cc3F)c3c(N)nccc32)C[C@@H]1CF` [Example 185, 1-[(2R,4S)-4-{4-Amino-3-[2-(6-fluoro-1-methyl-1,3-benzodiazol-5-yl)ethynyl]pyrazolo[4,3-c]pyridin-1-yl}-2-(fluoromethyl)pyrrolidin-1-yl]prop-2-en-1-one], not above 100 nM; that for `C=CC(=O)N1C[C@@H](n2cc(C#Cc3cc4ncn(C)c4cc3F)c3c(N)ncnc32)C[C@@H]1CF` [Example 186, 1-((2R,4S)-4-(4-Amino-5-((6-fluoro-1-methyl-1H-benzo[d]imidazol-5-yl)ethynyl)-7H-pyrrolo[2,3-d]pyrimidin-7-yl)-2-(fluoromethyl)pyrrolidin-1-yl)prop-2-en-1-one], not above 100 nM.
